From patent US20100137222A1, “Basic Peptides and Their Use as Combined Antibacterial-Antifungine Agents” (NOVABIOTICS LIMITED, priority 2007, published 2010)
Where two headings read alike, the source gives them in different places. Marks after values point to notes of the source that are not given here. No end group written: not given here.

Tests used:
P. acnes DSM1897 = type: cell-based, Propionibacterium acnes
Method: Broth Dilution Antibacterial Susceptibility Testing
The sensitivity of relevant bacterial strains to peptides was determined using Clinical Laboratory Standard Institute (CLSI; formerly NCCLS) Approved Standards. Bacterial susceptibility was tested using “Methods for Dilution Antimicrobial Susceptibility Tests for Bacteria That Grow […]; Approved Standard—Seventh Edition M7-A7”

M. furfur DSM6170 = type: cell-based, Malassezia furfur
Method: Broth Dilution Antifungal Susceptibility Testing
The sensitivity of relevant fungal strains to peptides was determined using Clinical Laboratory Standard Institute (CLSI; formerly NCCLS) Approved Standards. Yeast susceptibility was tested using “Reference Method for Broth Dilution Antifungal Susceptibility Testing of Yeasts; Approved Standard—Second Edition M27-A”.

[1] = Table 3, starred values (*value in mg/ml)
[2] = Table 1, starred values (*value in mM)

## N=C(N)NCCC[C@H](NC(=O)[C@H](CCCNC(=N)N)NC(=O)[C@H](CCCNC(=N)N)NC(=O)[C@H](CCCNC(=N)N)NC(=O)[C@H](CCCNC(=N)N)NC(=O)[C@H](CCCNC(=N)N)NC(=O)[C@H](CCCNC(=N)N)NC(=O)[C@H](CCCNC(=N)N)NC(=O)[C@H](CCCNC(=N)N)NC(=O)[C@H](CCCNC(=N)N)NC(=O)[C@@H](N)CCCNC(=N)N)C(=O)O [NP317]
P. acnes DSM1897; DSM1897
  Antimicrobial Activity (MIC) P. acnes DSM1897: <0.0156 mM
M. furfur DSM6170; DSM6170
  Antimicrobial Activity (MIC) M. furfur DSM6170: <0.0156 mM
M. furfur DSM6170; Table 3, unstarred values
  MIC against Malassezia furfur DSM6170: <0.0156 mM

## N=C(N)NCCC[C@H](NC(=O)[C@H](CCCNC(=N)N)NC(=O)[C@H](CCCNC(=N)N)NC(=O)[C@H](CCCNC(=N)N)NC(=O)[C@H](CCCNC(=N)N)NC(=O)[C@H](CCCNC(=N)N)NC(=O)[C@H](CCCNC(=N)N)NC(=O)[C@H](CCCNC(=N)N)NC(=O)[C@H](CCCNC(=N)N)NC(=O)[C@H](CCCNC(=N)N)NC(=O)[C@H](CCCNC(=N)N)NC(=O)[C@H](CCCNC(=N)N)NC(=O)[C@@H](N)CCCNC(=N)N)C(=O)O [NP337]
P. acnes DSM1897; DSM1897
  Antimicrobial Activity (MIC) P. acnes DSM1897: 0.0025 mM
M. furfur DSM6170; DSM6170
  Antimicrobial Activity (MIC) M. furfur DSM6170: 0.03125 mM

## CC(=O)N[C@@H](CCCNC(=N)N)C(=O)N[C@@H](CCCNC(=N)N)C(=O)N[C@@H](CCCNC(=N)N)C(=O)N[C@@H](CCCNC(=N)N)C(=O)N[C@@H](CCCNC(=N)N)C(=O)N[C@@H](CCCNC(=N)N)C(=O)N[C@@H](CCCNC(=N)N)C(=O)N[C@@H](CCCNC(=N)N)C(=O)N[C@@H](CCCNC(=N)N)C(=O)N[C@@H](CCCNC(=N)N)C(=O)N[C@@H](CCCNC(=N)N)C(=O)N[C@@H](CCCNC(=N)N)C(=O)N[C@@H](CCCNC(=N)N)C(N)=O [NP338]
P. acnes DSM1897; DSM1897
  Antimicrobial Activity (MIC) P. acnes DSM1897: 0.005 mM
M. furfur DSM6170; DSM6170
  Antimicrobial Activity (MIC) M. furfur DSM6170: <0.0156 mM
M. furfur DSM6170; Table 3, unstarred values
  MIC against Malassezia furfur DSM6170: <0.0156 mM

## N=C(N)NCCC[C@@H](N)C(=O)N[C@H](CCCNC(=N)N)C(=O)N[C@H](CCCNC(=N)N)C(=O)N[C@H](CCCNC(=N)N)C(=O)N[C@H](CCCNC(=N)N)C(=O)N[C@H](CCCNC(=N)N)C(=O)N[C@H](CCCNC(=N)N)C(=O)N[C@H](CCCNC(=N)N)C(=O)N[C@H](CCCNC(=N)N)C(=O)N[C@H](CCCNC(=N)N)C(=O)N[C@H](CCCNC(=N)N)C(=O)N[C@H](CCCNC(=N)N)C(=O)N[C@H](CCCNC(=N)N)C(=O)O [NP339, dRdRdRdRdRdRdRdRdRdRdRdRdR]
P. acnes DSM1897; DSM1897
  Antimicrobial Activity (MIC) P. acnes DSM1897: 0.02 mM
M. furfur DSM6170; DSM6170
  Antimicrobial Activity (MIC) M. furfur DSM6170: 0.008 mM

## CC(=O)N[C@H](CCCNC(=N)N)C(=O)N[C@H](CCCNC(=N)N)C(=O)N[C@H](CCCNC(=N)N)C(=O)N[C@H](CCCNC(=N)N)C(=O)N[C@H](CCCNC(=N)N)C(=O)N[C@H](CCCNC(=N)N)C(=O)N[C@H](CCCNC(=N)N)C(=O)N[C@H](CCCNC(=N)N)C(=O)N[C@H](CCCNC(=N)N)C(=O)N[C@H](CCCNC(=N)N)C(=O)N[C@H](CCCNC(=N)N)C(=O)N[C@H](CCCNC(=N)N)C(=O)N[C@H](CCCNC(=N)N)C(N)=O [NP340, Ac-dRdRdRdRdRdRdRdRdRdRdRdRdR-NH2]
P. acnes DSM1897; DSM1897
  Antimicrobial Activity (MIC) P. acnes DSM1897: 0.02 mM
M. furfur DSM6170; DSM6170
  Antimicrobial Activity (MIC) M. furfur DSM6170: 0.008 mM

## (H)n, n = 32-161, HCl salt (5-25 kDa) [NP131]
M. furfur DSM6170; [1]
  MIC against Malassezia furfur DSM6170: 0.0625* mg/ml

## (H)n, n = >32, HCl salt (>5 kDa) [NP132]
M. furfur DSM6170; [1]
  MIC against Malassezia furfur DSM6170: 0.0625* mg/ml

## (I-K)n, n = 7-27, HBr salt [NP106]
P. acnes DSM1897; Table 1, unstarred values
  Antimicrobial Activity (MIC) P. acnes DSM1897: 0.125 mg/mL
M. furfur DSM6170; Table 1, unstarred values
  Antimicrobial Activity (MIC) M. furfur DSM6170: 0.5 mg/mL

## (I-K)n, n = 100-200, HCl salt [NP101]
P. acnes DSM1897; Table 1, unstarred values
  Antimicrobial Activity (MIC) P. acnes DSM1897: 0.1 mg/mL

## (R)n, n = 28-86, HCl salt (5-15 kDa) [NP121]
M. furfur DSM6170; [1]
  MIC against Malassezia furfur DSM6170: 0.25* mg/ml

## (R)n, n = 86-402, HCl salt (15-70 kDa) [NP122]
M. furfur DSM6170; [1]
  MIC against Malassezia furfur DSM6170: 0.25* mg/ml

## GKKEKPEKKVKK [NP331]
P. acnes DSM1897; DSM1897
  Antimicrobial Activity (MIC) P. acnes DSM1897: >2 mM

## KKKDKVKK [NP334]
P. acnes DSM1897; DSM1897
  Antimicrobial Activity (MIC) P. acnes DSM1897: >2 mM

## KKKKK [NP343, KKKKK]
P. acnes DSM1897; DSM1897
  Antimicrobial Activity (MIC) P. acnes DSM1897: >10* mM

## KKKKKEGKKQEKMLD [NP333]
P. acnes DSM1897; DSM1897
  Antimicrobial Activity (MIC) P. acnes DSM1897: >2 mM

## KKKKKKK [NP344, KKKKKKK]
P. acnes DSM1897; DSM1897
  Antimicrobial Activity (MIC) P. acnes DSM1897: >10* mM
M. furfur DSM6170; DSM6170
  Antimicrobial Activity (MIC) M. furfur DSM6170: 1* mM

## KKKKKKKKK [NP345]
P. acnes DSM1897; DSM1897
  Antimicrobial Activity (MIC) P. acnes DSM1897: 2.5* mM

## KKKKKKKKKKKKKKK [NP348]
P. acnes DSM1897; [2]
  Antimicrobial Activity (MIC) P. acnes DSM1897: 0.0625* mM
M. furfur DSM6170; [2]
  Antimicrobial Activity (MIC) M. furfur DSM6170: 0.25* mM

## KLTKPKPQAESKKKKK [NP332]
P. acnes DSM1897; DSM1897
  Antimicrobial Activity (MIC) P. acnes DSM1897: >2 mM

## KVRQGTLKKAR [NP335]
P. acnes DSM1897; DSM1897
  Antimicrobial Activity (MIC) P. acnes DSM1897: >2 mM

## PKTKAKAKAKKGKGKD [NP336]
P. acnes DSM1897; DSM1897
  Antimicrobial Activity (MIC) P. acnes DSM1897: >2 mM

## RRRRVVRRRR [NP310]
P. acnes DSM1897; DSM1897
  Antimicrobial Activity (MIC) P. acnes DSM1897: 0.5 mM
M. furfur DSM6170; DSM6170
  Antimicrobial Activity (MIC) M. furfur DSM6170: 0.5 mM
M. furfur DSM6170; Table 3, unstarred values
  MIC against Malassezia furfur DSM6170: 0.5 mM

## RRRVRRR [NP306, RRRVRRR]
P. acnes DSM1897; DSM1897
  Antimicrobial Activity (MIC) P. acnes DSM1897: 2 mM

## RRRVVRRR [NP308]
P. acnes DSM1897; DSM1897
  Antimicrobial Activity (MIC) P. acnes DSM1897: >2 mM

## RRRWRRR [NP325, RRRWRRR]
P. acnes DSM1897; DSM1897
  Antimicrobial Activity (MIC) P. acnes DSM1897: 2 mM

## RRRWWRRR [NP327]
P. acnes DSM1897; DSM1897
  Antimicrobial Activity (MIC) P. acnes DSM1897: 0.125 mM

## RRVRR [NP303, RRVRR]
P. acnes DSM1897; DSM1897
  Antimicrobial Activity (MIC) P. acnes DSM1897: >2 mM

## RRVRRVRR [NP309]
P. acnes DSM1897; DSM1897
  Antimicrobial Activity (MIC) P. acnes DSM1897: 1 mM

## RRVRVR [NP304, RRVRVR]
P. acnes DSM1897; DSM1897
  Antimicrobial Activity (MIC) P. acnes DSM1897: >2 mM

## RRVRVRR [NP307, RRVRVRR]
P. acnes DSM1897; DSM1897
  Antimicrobial Activity (MIC) P. acnes DSM1897: >2 mM

## RRVVR [NP302, RRVVR]
P. acnes DSM1897; DSM1897
  Antimicrobial Activity (MIC) P. acnes DSM1897: >2 mM

## RRVVRR [NP305, RRVVRR]
P. acnes DSM1897; DSM1897
  Antimicrobial Activity (MIC) P. acnes DSM1897: >2 mM

## RRVVRRVVRR [NP311]
P. acnes DSM1897; DSM1897
  Antimicrobial Activity (MIC) P. acnes DSM1897: 2 mM

## RRWRR [NP322, RRWRR]
P. acnes DSM1897; DSM1897
  Antimicrobial Activity (MIC) P. acnes DSM1897: 2 mM

## RRWRRWRR [NP328]
P. acnes DSM1897; DSM1897
  Antimicrobial Activity (MIC) P. acnes DSM1897: 0.5 mM

## RRWRWR [NP323, RRWRWR]
P. acnes DSM1897; DSM1897
  Antimicrobial Activity (MIC) P. acnes DSM1897: 0.5 mM

## RRWRWRR [NP326, RRWRWRR]
P. acnes DSM1897; DSM1897
  Antimicrobial Activity (MIC) P. acnes DSM1897: 0.25 mM

## RRWWR [NP321, RRWWR]
P. acnes DSM1897; DSM1897
  Antimicrobial Activity (MIC) P. acnes DSM1897: 1 mM

## RRWWRR [NP324, RRWWRR]
P. acnes DSM1897; DSM1897
  Antimicrobial Activity (MIC) P. acnes DSM1897: 0.25 mM

## RVRVR [NP301, RVRVR]
P. acnes DSM1897; DSM1897
  Antimicrobial Activity (MIC) P. acnes DSM1897: >2 mM

## RWRWR [NP320, RWRWR]
P. acnes DSM1897; DSM1897
  Antimicrobial Activity (MIC) P. acnes DSM1897: 1 mM
